Assay results reported in patent US10913721B2, “Crystalline form of aripiprazole” (Noratech Pharmaceuticals, Inc., priority 2016, dated 2021).
“Also recorded” adds a separate entry of the source.

How the values were obtained:
[1] = Comparison test for the dissolution rate of crystalline forms of aripiprazole; format: physicochemical; conditions: 0.25% sodium dodecyl sulfate solution (900 mL), slurry method, 50 rpm, 37° C.±0.5° C.; 15-360 min; compared with hydrate A and the conventional hydrate (FIG. 7)
Experimental: Sample preparation: Powders of crystalline form N, hydrate A and the conventional hydrate of aripiprazole are respectively sieved through a 100-mesh sieve, and the appropriate amount of sieved material (equivalent to 50 mg of aripiprazole) is taken and measured to determine the dissolution rate of each sample.
Dissolution conditions: 0.25% sodium dodecyl sulfate solution (900 mL): slurry method: 50 rpm; 37° C.±0.5° C.
Sample detection: Samples of 3 ml are respectively taken at 15, 30, 60, 90, 120, 240, and 360 min, and immediately littered through a 0.45 μm microporous membrane, 2 mL of the initial filtrate is discarded, and the drug concentration in the subsequent filtrate is measured.

[2] = as stated in WO 03/026659; cited from earlier work

Row | Compound | dissolution rate (release rate) [1] | hygroscopicity [2]
1 | O=C1CCc2ccc(OCCCCN3CCN(c4cccc(Cl)c4Cl)CC3)cc2N1 [Crystalline form N, 7-{4-[4-(2,3-dichlorophenyl)-1-piperazinyl]-butoxy}-3,4-dihydroquinolone] | slower release rate; also recorded: slower dissolution rate | –
2 | O=C1CCc2ccc(OCCCCN3CCN(c4cccc(Cl)c4Cl)CC3)cc2N1 [type-I crystals] | – | significant hygroscopicity
